# In PMC8985176, “Structural transformation of methasterone with Cunninghamella blakesleeana and Macrophomina phaseolina” (RSC Advances, 2022):
# Like-named read-outs stand apart in the source and are kept apart here.
# What was measured:
# [1] = system: nitric oxide (NO) production; experiment: Nitric oxide (NO) production inhibitory assay (Griess method, LPS-stimulated J774.2 macrophages); assay type: cell-based, mouse
# Procedure: The J774.2 cell line (mouse macrophage) was obtained from (European Collection of Cell Cultures, Salisbury, UK). It was cultivated in […] flasks (IWAKI, Asahi Techno Glass, Shizuoka, Japan), containing DMEM (Sigma-Aldrich, Steinheim, Germany) and fetal bovine serum (FBS) (10%) (GIBCO, New York, NY, USA) and 1% streptomycin/penicillin, and were incubated in 5% CO2 at 37 °C. Fully-grown cells (10^6 cells per mL) were transferred into the 96-well plate, and NO synthase was added into the wells by E. coli (30 μg mL^−1) lipopolysaccharide (LPS) (DIFCO Laboratories, Detroit, MI, USA) for NO production. Samples were tested with different concentrations (1, 10, and 25 μg mL^−1), and placed in CO2 (5%) at 37 °C. N^G monomethyl L-arginine acetate (LNMMA) was used as a standard NO inhibitor. Griess method was used to analyze the accumulation of nitrite in the cells.[35] IC50 values were calculated by a Microsoft Excel-based formula.
# [2] = Cytotoxicity MTT assay, BJ cells; assay type: cell-based; settings: human, BJ normal human fibroblast cells, μM converted to μg mL^−1, read-out: IC50 cytotoxicity against human normal cell line (BJ)
# Procedure: (§1) MCF-7 (breast cancer), NCI-H460 (lung cancer), HeLa (cervical cancer) cell lines, and BJ (normal human fibroblast) cell lines were collected from cell culture biobank (PCMD, ICCBS). DMEM medium was used for MCF-7, HeLa, and BJ, and RPMI (ATCC modified medium) was used for NCI-H460. The media was supplemented with 10% FBS, 100 IU mL^−1 of penicillin, and 100 μg mL^−1 of streptomycin, and kept at 37 °C in a 5% CO2 incubator. The inhibition was investigated by MTT assay. Briefly, 100 μL per well of cell solutions (10 × 10^4 cells per mL MCF-7 cells, 5 × 10^4 cells per mL NCI-H460 cells, 6 × 10^4 cells per mL HeLa cells, or 5 × 10^4 cells per mL BJ cells), were added into 96-well plate and incubated for 24 h at 37 °C, before treatment with 6.25–50 μM of compounds or positive control doxorubicin for 48 h. After this, 20 μL of MTT (5 mg mL^−1) was added to each well and then incubated for 4 h at 37 °C. Then 100 μL DMSO was added to each well to dissolve the purple formazan crystal. The absorbance was analyzed at 570 nm (MCF-7, NCI-H460, and HeLa) or 550 nm (BJ) using an ELISA plate reader.
# [3] = system: MCF-7 (breast cancer) cell line; experiment: Cytotoxicity MTT assay, MCF-7 cells; assay type: cell-based; settings: Homo sapiens, MCF7, 48 h
# Procedure: as §1
# [4] = system: NCI-H460 (lung cancer) cell line; experiment: Cytotoxicity MTT assay, NCI-H460 cells; assay type: cell-based; settings: Homo sapiens, 48 h
# Procedure: as §1
# [5] = system: HeLa (cervical cancer) cell line; experiment: Cytotoxicity MTT assay, HeLa cells; assay type: cell-based; settings: Homo sapiens, 48 h
# Procedure: as §1
# [6] = J774.2 mouse macrophages, LPS 30 μg mL^−1, Griess method, read-out: IC50 against nitric oxide (NO) production
Compound,"IC50 [1, 6]",IC50 at 48 h [2],inhibition at 50 µM [3],inhibition at 50 µM [4],inhibition at 50 µM [5],"IC50 ([1]; Mus musculus, J774.2, read-out: IC50 against nitric oxide (NO) production)",melting point,"IC50 against nitric oxide (NO) production ([1]; J774.2 mouse macrophages, LPS 30 μg mL^−1, Griess method)",IC50 ([4]; read-out: IC50 against NCI-H460)
"CC1CC2(C)C(CCC3C2CCC2(C)C3CCC2(C)O)CC1=O (centres unmarked) [Compound 1, methasterone]",23.9 ± 0.2 µg/mL,8.01 ± 0.52 µg/mL,< 50%,< 50%,< 50%,,,,
"CC1CC2(C)C(CC1=O)C(O)CC1C3CCC(C)(O)C3(C)CCC12O (stereo not drawn) [Compound 7, 6β,9α,17β-Trihydroxy-2α,17α-dimethyl-5α-androstane-3-one]",,,< 50%,< 50%,< 50%,40.2 ± 3.3 µg/mL,139 to 141 °C,,
"C[C@@H]1C[C@@]2(C)[C@H](CC1=O)[C@H](O)[C@H](O)[C@@H]1[C@@H]2CC[C@@]2(C)[C@H]1CC[C@]2(C)O [Compound 2, 6β,7β,17β-Trihydroxy-2α,17α-dimethyl-5α-androstane-3-one]",38.1 ± 0.5 µg/mL,,< 50%,< 50%,< 50%,,139 to 141 °C,,
"CC(=O)O.CNC(=N)NCCC[C@H](N)C(=O)O [LNMMA, N^G monomethyl L-arginine acetate, reference compound]",,,,,,,,24.2 ± 0.8 µg/mL,
"COc1cccc2c1C(=O)c1c(O)c3c(c(O)c1C2=O)C[C@@](O)(C(=O)CO)C[C@@H]3O[C@H]1C[C@H](N)[C@H](O)[C@H](C)O1 [doxorubicin, reference compound]",,,,,,,,,0.76 ± 0.05 µg/mL
